Measurements from ChEMBL document CHEMBL3046802, “7-Piperazinylquinolones with methylene-bridged nitrofuran scaffold as new antibacterial agents” (2013).
≈ marks a conversion by molar mass, not a printed value.

Assays:
Assay type in all cases: functional
Pseudomonas aeruginosa = assay: Antibacterial activity against Pseudomonas aeruginosa ATCC 9027 after 18 hrs by agar dilution method; conditions: ATCC 9027, 18 h
Staphylococcus aureus = assay: Antibacterial activity against Staphylococcus aureus ATCC 6538 after 18 hrs by agar dilution method; conditions: ATCC 6538, 18 h
Escherichia coli = assay: Antibacterial activity against Escherichia coli ATCC 8739 after 18 hrs by agar dilution method; conditions: ATCC 8739, 18 h
[1] = test system: Staphylococcus epidermidis; assay: Antibacterial activity against Staphylococcus epidermidis ATCC 12228 after 18 hrs by agar dilution method; conditions: ATCC 12228, 18 h
Klebsiella pneumoniae = assay: Antibacterial activity against Klebsiella pneumoniae ATCC 10031 after 18 hrs by agar dilution method; conditions: ATCC 10031, 18 h
Bacillus subtilis = assay: Antibacterial activity against Bacillus subtilis ATCC 6633 after 18 hrs by agar dilution method; conditions: ATCC 6633, 18 h

| MIC (Pseudomonas aeruginosa) | MIC (Staphylococcus aureus) | MIC (Escherichia coli) | MIC [1] | MIC (Klebsiella pneumoniae) | MIC (Bacillus subtilis) | SMILES |
| --- | --- | --- | --- | --- | --- | --- |
| 3.13 µg/mL (≈ 6.86 µM) | 0.39 µg/mL (≈ 0.854 µM) | 1.56 µg/mL (≈ 3.42 µM) | 1.56 µg/mL (≈ 3.42 µM) | 0.39 µg/mL (≈ 0.854 µM) | 0.78 µg/mL (≈ 1.71 µM) | O=C(O)c1cn(C2CC2)c2cc(N3CCN(Cc4ccc([N+](=O)[O-])o4)CC3)c(F)cc2c1=O |
| 1.56 µg/mL (≈ 4.87 µM) | 0.39 µg/mL (≈ 1.22 µM) | 0.39 µg/mL (≈ 1.22 µM) | 0.78 µg/mL (≈ 2.44 µM) | 0.78 µg/mL (≈ 2.44 µM) | 0.195 µg/mL (≈ 0.609 µM) | CCn1cc(C(=O)O)c(=O)c2cc(F)c(N3CCNCC3)nc21 [ENOXACIN] |
| 6.25 µg/mL (≈ 12.5 µM) | 0.78 µg/mL (≈ 1.56 µM) | 3.13 µg/mL (≈ 6.25 µM) | 1.56 µg/mL (≈ 3.12 µM) | 1.56 µg/mL (≈ 3.12 µM) | 3.13 µg/mL (≈ 6.25 µM) | COc1c(N2CCN(Cc3ccc([N+](=O)[O-])o3)C(C)C2)c(F)cc2c(=O)c(C(=O)O)cn(C3CC3)c12 (stereo unspecified) |
| 25 µg/mL (≈ 52.5 µM) | 1.56 µg/mL (≈ 3.27 µM) | 0.39 µg/mL (≈ 0.819 µM) | 3.13 µg/mL (≈ 6.57 µM) | 6.25 µg/mL (≈ 13.1 µM) | 0.097 µg/mL (≈ 0.204 µM) | CCn1cc(C(=O)O)c(=O)c2cc(F)c(N3CCN(Cc4ccc([N+](=O)[O-])o4)C(C)C3)c(F)c21 (racemic) |
| 12.5 µg/mL (≈ 26.5 µM) | 1.56 µg/mL (≈ 3.3 µM) | 0.78 µg/mL (≈ 1.65 µM) | 0.39 µg/mL (≈ 0.826 µM) | 1.56 µg/mL (≈ 3.3 µM) | 0.78 µg/mL (≈ 1.65 µM) | C[C@H]1COc2c(N3CCN(Cc4ccc([N+](=O)[O-])o4)CC3)c(F)cc3c(=O)c(C(=O)O)cn1c23 |
| 12.5 µg/mL (≈ 28.1 µM) | 0.39 µg/mL (≈ 0.876 µM) | 6.25 µg/mL (≈ 14 µM) | 3.13 µg/mL (≈ 7.03 µM) | 3.13 µg/mL (≈ 7.03 µM) | 6.25 µg/mL (≈ 14 µM) | CCn1cc(C(=O)O)c(=O)c2cc(F)c(N3CCN(Cc4ccc([N+](=O)[O-])o4)CC3)nc21 |
| 0.78 µg/mL (≈ 2.08 µM) | 0.78 µg/mL (≈ 2.08 µM) | 1.56 µg/mL (≈ 4.16 µM) | 0.78 µg/mL (≈ 2.08 µM) | 0.195 µg/mL (≈ 0.519 µM) | 0.78 µg/mL (≈ 2.08 µM) | COc1c(N2CCNC(C)C2)c(F)cc2c(=O)c(C(=O)O)cn(C3CC3)c12 (stereo unspecified) [GATIFLOXACIN] |
| 25 µg/mL (≈ 56.3 µM) | 1.56 µg/mL (≈ 3.51 µM) | 6.25 µg/mL (≈ 14.1 µM) | 3.13 µg/mL (≈ 7.04 µM) | 6.25 µg/mL (≈ 14.1 µM) | 12.5 µg/mL (≈ 28.1 µM) | CCn1cc(C(=O)O)c(=O)c2cc(F)c(N3CCN(Cc4ccc([N+](=O)[O-])o4)CC3)cc21 |
| 50 µg/mL (≈ 107 µM) | 3.13 µg/mL (≈ 6.71 µM) | 3.13 µg/mL (≈ 6.71 µM) | 3.13 µg/mL (≈ 6.71 µM) | 12.5 µg/mL (≈ 26.8 µM) | 3.13 µg/mL (≈ 6.71 µM) | O=C(O)c1cn(C2CC2)c2cc(N3CCN(Cc4ccc([N+](=O)[O-])cc4)CC3)c(F)cc2c1=O |

| SMILES | MIC (Pseudomonas aeruginosa) | MIC (Staphylococcus aureus) | MIC (Escherichia coli) | MIC [1] | MIC (Klebsiella pneumoniae) | MIC (Bacillus subtilis) |
| --- | --- | --- | --- | --- | --- | --- |
| C[C@H]1COc2c(N3CCNCC3)c(F)cc3c(=O)c(C(=O)O)cn1c23 [N-DESMETHYL LEVOFLOXACIN] | > 6.25 µg/mL | 3.13 µg/mL (≈ 9.01 µM) | – | 1.56 µg/mL (≈ 4.49 µM) | 0.39 µg/mL (≈ 1.12 µM) | 1.56 µg/mL (≈ 4.49 µM) |
| C[C@H]1COc2c(N3CCN(C)CC3)c(F)cc3c(=O)c(C(=O)O)cn1c23.C[C@H]1COc2c(N3CCN(C)CC3)c(F)cc3c(=O)c(C(=O)O)cn1c23.O [LEVOFLOXACIN] | 3.13 µg/mL | 0.39 µg/mL | – | 0.39 µg/mL | 0.39 µg/mL | 0.78 µg/mL |
| CCn1cc(C(=O)O)c(=O)c2cc(F)c(N3CCNCC3)cc21 [NORFLOXACIN] | 1.56 µg/mL (≈ 4.89 µM) | 0.39 µg/mL (≈ 1.22 µM) | 0.195 µg/mL (≈ 0.611 µM) | 0.39 µg/mL (≈ 1.22 µM) | 0.39 µg/mL (≈ 1.22 µM) | 0.195 µg/mL (≈ 0.611 µM) |
| O=C(O)c1cn(C2CC2)c2cc(N3CCNCC3)c(F)cc2c1=O [CIPROFLOXACIN] | 0.39 µg/mL (≈ 1.18 µM) | 0.195 µg/mL (≈ 0.589 µM) | 0.097 µg/mL (≈ 0.293 µM) | 0.195 µg/mL (≈ 0.589 µM) | 0.049 µg/mL (≈ 0.148 µM) | 0.195 µg/mL (≈ 0.589 µM) |
